The source of these data is patent US12006301B1, “And synthesis of dual 5-HT1A and 5-HT7 receptor ligands” (Florida A&M University, priority 2021, dated 2024).

The target of data set [1] is serotonin transporter (SERT) (Homo sapiens, UniProt P31645). The data set can be described thus: NIMH-PDSP radioligand binding affinity, SERT. To be noted: read-out: SERT binding, 50% threshold inhibition (MT).
Description: Binding affinities reported in Tables 1-3 were conducted by the National Institute of Mental Health Psychoactive Drug Screening Program (NIMH-PDSP).
Data set [2] concerns the target D2R (Homo sapiens, UniProt P14416). The data set can be described thus: NIMH-PDSP radioligand binding affinity, D2. The following applies: for inhibition at 10 µM: read-out: D2 binding, 50% threshold inhibition (MT).
For data set [3] the following is noted: animal models, rats, cited from earlier work.
For data set [4] the following is noted: animal studies, cited from earlier work.
Data set [5] addresses T1, 5-HT2CR (Homo sapiens, UniProt P28335).
T1 sequence (P28335 33-458): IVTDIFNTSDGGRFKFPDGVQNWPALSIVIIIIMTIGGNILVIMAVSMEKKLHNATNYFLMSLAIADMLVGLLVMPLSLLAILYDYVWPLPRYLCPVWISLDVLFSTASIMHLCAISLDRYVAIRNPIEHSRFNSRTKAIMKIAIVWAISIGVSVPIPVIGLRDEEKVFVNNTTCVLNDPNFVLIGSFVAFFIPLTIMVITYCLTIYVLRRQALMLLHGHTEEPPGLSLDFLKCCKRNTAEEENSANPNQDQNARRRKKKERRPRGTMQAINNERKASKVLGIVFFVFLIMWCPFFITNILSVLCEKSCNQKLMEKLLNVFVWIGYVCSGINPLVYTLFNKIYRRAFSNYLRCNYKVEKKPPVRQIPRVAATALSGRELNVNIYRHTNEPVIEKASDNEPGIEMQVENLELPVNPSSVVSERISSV
Description: NIMH-PDSP radioligand binding affinity, 5-HT2C. The following applies: for inhibition at 10 µM: read-out: 5-HT2C binding, 50% threshold inhibition (MT).

Data set [6] has as its target T2, 5-HT7AR (Homo sapiens, UniProt P34969).
T2 construct: expressed in transfected cells; host or cells: Human embryonic kidney (HEK) cells, transient transfection with PEI
The data set can be described thus: HEK-5-HT7A/cAMP adenylate cyclase functional assay, agonist effects. In kind it is cell-based.

For data set [7], the target named is D3R (Homo sapiens, UniProt P35462). Description: NIMH-PDSP radioligand binding affinity, D3.
D3R, sequence (P35462 whole entry): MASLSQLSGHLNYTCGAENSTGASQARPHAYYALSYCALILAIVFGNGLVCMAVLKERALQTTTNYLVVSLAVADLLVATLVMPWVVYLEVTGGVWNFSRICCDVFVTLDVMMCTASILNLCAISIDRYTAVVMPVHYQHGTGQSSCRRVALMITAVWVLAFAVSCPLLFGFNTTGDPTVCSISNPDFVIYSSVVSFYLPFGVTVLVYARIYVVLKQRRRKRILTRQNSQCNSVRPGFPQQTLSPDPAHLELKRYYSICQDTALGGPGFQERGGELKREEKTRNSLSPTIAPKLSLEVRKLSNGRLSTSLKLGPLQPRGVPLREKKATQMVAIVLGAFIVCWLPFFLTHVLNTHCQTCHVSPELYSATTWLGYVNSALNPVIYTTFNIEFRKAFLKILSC
For data set [8], the target named is T3, D4R (Homo sapiens, UniProt P21917).
T3 sequence (P21917 1-419): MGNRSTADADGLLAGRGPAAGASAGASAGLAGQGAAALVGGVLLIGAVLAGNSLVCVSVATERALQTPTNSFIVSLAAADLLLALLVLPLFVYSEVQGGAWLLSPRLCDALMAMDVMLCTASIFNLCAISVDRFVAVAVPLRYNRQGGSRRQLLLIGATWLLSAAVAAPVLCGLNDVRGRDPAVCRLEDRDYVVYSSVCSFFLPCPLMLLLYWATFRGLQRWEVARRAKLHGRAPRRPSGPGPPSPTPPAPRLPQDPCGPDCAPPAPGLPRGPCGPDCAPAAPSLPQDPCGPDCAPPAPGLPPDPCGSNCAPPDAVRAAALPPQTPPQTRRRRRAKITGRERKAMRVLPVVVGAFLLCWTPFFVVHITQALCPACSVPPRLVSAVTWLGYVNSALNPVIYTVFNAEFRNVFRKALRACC
The data set can be described thus: NIMH-PDSP radioligand binding affinity, D4. The following applies: read-out: D4 binding, 50% threshold inhibition (MT).

Where a name gives a salt, the structure may show the parent alone. Read-outs that look alike come from different tables or passages of the source.

D2R, sequence (P14416 whole entry): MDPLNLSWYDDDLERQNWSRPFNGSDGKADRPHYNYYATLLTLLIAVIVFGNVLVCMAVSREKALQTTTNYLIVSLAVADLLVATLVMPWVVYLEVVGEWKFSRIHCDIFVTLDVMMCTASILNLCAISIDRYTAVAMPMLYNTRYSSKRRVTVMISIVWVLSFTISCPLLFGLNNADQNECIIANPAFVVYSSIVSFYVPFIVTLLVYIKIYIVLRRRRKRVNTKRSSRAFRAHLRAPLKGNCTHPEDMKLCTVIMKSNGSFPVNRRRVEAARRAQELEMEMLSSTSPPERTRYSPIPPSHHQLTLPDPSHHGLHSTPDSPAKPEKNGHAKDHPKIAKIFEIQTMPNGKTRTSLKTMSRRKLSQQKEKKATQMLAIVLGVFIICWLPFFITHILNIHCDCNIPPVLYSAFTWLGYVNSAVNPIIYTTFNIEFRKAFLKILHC
serotonin transporter (SERT), sequence (P31645 whole entry, species assumed): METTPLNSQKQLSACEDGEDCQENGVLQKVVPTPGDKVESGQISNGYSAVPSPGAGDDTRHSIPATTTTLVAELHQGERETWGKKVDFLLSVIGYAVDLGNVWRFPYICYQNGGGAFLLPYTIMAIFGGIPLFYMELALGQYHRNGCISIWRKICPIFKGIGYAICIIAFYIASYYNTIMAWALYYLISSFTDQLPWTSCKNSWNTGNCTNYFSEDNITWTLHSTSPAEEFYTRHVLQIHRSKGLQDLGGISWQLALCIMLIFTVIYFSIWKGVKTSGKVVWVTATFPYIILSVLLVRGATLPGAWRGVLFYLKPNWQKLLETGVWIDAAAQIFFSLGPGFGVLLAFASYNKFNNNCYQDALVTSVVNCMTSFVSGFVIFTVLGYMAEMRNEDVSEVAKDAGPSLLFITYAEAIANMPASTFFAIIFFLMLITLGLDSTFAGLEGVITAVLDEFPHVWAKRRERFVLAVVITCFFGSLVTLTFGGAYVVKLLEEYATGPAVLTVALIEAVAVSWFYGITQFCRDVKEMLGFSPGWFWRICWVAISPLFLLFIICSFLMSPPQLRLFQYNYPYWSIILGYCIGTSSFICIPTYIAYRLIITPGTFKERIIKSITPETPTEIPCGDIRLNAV
T2 sequence (P34969 1-445 isoform P34969-2): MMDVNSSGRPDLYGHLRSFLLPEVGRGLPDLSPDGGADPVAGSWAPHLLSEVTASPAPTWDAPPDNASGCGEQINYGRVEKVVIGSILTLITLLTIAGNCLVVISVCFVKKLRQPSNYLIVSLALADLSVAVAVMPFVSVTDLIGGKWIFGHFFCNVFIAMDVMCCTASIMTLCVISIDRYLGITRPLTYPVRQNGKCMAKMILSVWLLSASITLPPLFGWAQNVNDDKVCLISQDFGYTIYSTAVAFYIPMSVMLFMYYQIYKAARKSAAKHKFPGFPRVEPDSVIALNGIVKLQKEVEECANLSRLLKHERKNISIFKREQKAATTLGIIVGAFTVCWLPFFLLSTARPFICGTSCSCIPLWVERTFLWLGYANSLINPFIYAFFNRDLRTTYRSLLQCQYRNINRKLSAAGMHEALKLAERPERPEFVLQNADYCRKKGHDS

For `O=C1c2cc(Cl)ccc2CC1CCN1CCN(c2ccccn2)CC1` (centres unmarked) [Compound 17, 6-chloro-2-(2-(4-(pyridin-2-yl)piperazin-1-yl)ethyl)-2,3-dihydro-1H-inden-1-one], the inhibition at 10 µM in data set [1] is less than 50%.

For `O=C1c2ccc(Cl)cc2CC1CCCN1CCN(c2ccccn2)CC1` (centres unmarked) [Compound 19, 5-chloro-2-(3-(4-(pyridin-2-yl)piperazin-1-yl)propyl)-2,3-dihydro-1H-inden-1-one], the inhibition at 10 µM in data set [2] was less than 50%. Regarding `O=C(CCCN1CCN(c2ccccn2)CC1)c1ccc2c(c1)CCC2` [Compound 12, 1-(2,3-Dihydro-1H-inden-5-yl)-4-(4-(pyridin-2-yl)piperazin-1-yl)butan-1-one], the melting point was 74 to 75 °C. Moreover, the inhibition at 10 µM in data set [1] is less than 50%. In the case of `Fc1ccc(CCCCN2CCN(c3ccccn3)CC2)cc1` [Compound 2, 1-(4-(4-fluorophenyl)butyl)-4-(pyridin-2-yl)piperazine], the “catalepsy / motoric side effects (in words)” value in [3] is reported as “low propensity to cause catalepsy”; in [3] (listed as SYA 16263) it was “low propensity to cause motoric side effects”; in data set [3] (listed as SYA16263) it was “absence of catalepsy”. The “antipsychotic-like activity (in words)” value in data set [4] (listed as SYA 16263) is given as “moderate antipsychotic-like activity”; in data set [4] (listed as SYA16263), “antipsychotic-like properties”.

As for `O=C1c2ccc(F)cc2CC1CCN1CCN(c2ccccn2)CC1` (centres unmarked) [Compound 13, 5-Fluoro-2-(2-(4-(pyridin-2-yl)piperazin-1-yl)ethyl)-2,3-dihydro-1H-inden-1-one], in [2], the “binding affinity at D2R (in words)” value was “complete loss of binding affinity” and the inhibition at 10 µM was less than 50%. Besides, the “5-HT2C binding, 50% threshold inhibition (MT)” value in [5] (10 µM) is reported as “MT (key: MT = missed 50% threshold inhibition at 10 μM concentration)”. In [1], the inhibition at 10 µM is less than 50%. In the case of `Clc1ccc2c(c1)CC(CCN1CCN(c3ccccn3)CC1)C2` (centres unmarked) (as salt: HCl) [Compound 16, 1-(2-(5-chloro-2,3-dihydro-1H-inden-2-yl)ethyl)-4-(pyridin-2-yl)piperazine], the melting point is 267 to 270 °C.

As to `O=C1CCc2cc(C(=O)CCCN3CCN(c4ccccn4)CC3)ccc2N1` [Compound 7, 6-(4-(4-(pyridin-2-yl)piperazin-1-yl)butanoyl)-3,4-dihydroquinolin-2(1H)-one], the melting point lay in the range of 192 to 193 °C. The inhibition at 10 µM in data set [5] is less than 50%. In [1], the inhibition at 10 µM was less than 50%. As to `O=C1c2ccc(Cl)cc2CC1CCCN1CCN(c2ccccn2)CC1` (centres unmarked) [drawing 43], in data set [1], the inhibition at 10 µM was less than 50%. On to `NCCc1c[nH]c2ccc(O)cc12` [Serotonin], for which, in data set [6], the “agonist activity at 5-HT7AR (in words)” value was “showed agonist properties”. Take `Nc1ccc(CCCCN2CCN(c3ccccn3)CC2)cc1` [Compound 6, 4-(4-(4-(pyridin-2-yl)piperazin-1-yl)butyl)aniline]: the inhibition at 10 µM in data set [5] and in data set [1] was less than 50% each time.

On to `O=C1c2cc(Cl)c(Cl)cc2CC1CCN1CCN(c2ccccn2)CC1` (centres unmarked) [Compound 18, 5,6-Dichloro-2-(2-(4-(pyridin-2-yl)piperazin-1-yl)ethyl)-2,3-dihydro-1H-inden-1-one], for which the inhibition at 10 µM in data set [1] was less than 50%. Molecule `O=C1CCc2cc(OCCCN3CCCN(c4ccccn4)CC3)ccc2N1` (as salt: oxalate) [Compound 10, 6-(3-(4-(pyridin-2-yl)-1,4-diazepan-1-yl)propoxy)-3,4-dihydroquinolin-2(1H)-one oxalate] showed a melting point of 190 to 192 °C.

In turn, `O=C1CCc2cc(CCCCN3CCN(c4ccccn4)CC3)ccc2N1` [Compound 8, 6-(4-(4-(pyridin-2-yl)piperazin-1-yl)butyl)-3,4-dihydroquinolin-2(1H)-one] returned a melting point of 144 to 145 °C. As to `Nc1ccc(C(=O)CCCN2CCN(c3ccccn3)CC2)cc1` [Compound 5, 1-(4-aminophenyl)-4-(4-(pyridin-2-yl)piperazin-1-yl)butan-1-one], the melting point was 203 to 204 °C. Besides, the inhibition at 10 µM in data set [1] was less than 50%. As to `OC1c2ccc(F)cc2CC1CCN1CCN(c2ccccn2)CC1` (centres unmarked) [Compound 14, 5-Fluoro-2-[2-(4-pyridin-2-yl-piperazin-1-yl)-ethyl]-indan-1-ol], the inhibition at 10 µM in data set [5] is less than 50%.

For `CC(=O)Nc1ccc(CCCCN2CCN(c3ccccn3)CC2)cc1` [Compound 4, N-(4-(4-(4-(pyridin-2-yl)piperazin-1-yl)butyl)phenyl)acetamide], the inhibition at 10 µM in [1] was less than 50%.

On to `Clc1ccc2c(c1)CC(CCN1CCN(c3ccccn3)CC1)C2` (centres unmarked) [Compound 16, 1-(2-(5-chloro-2,3-dihydro-1H-inden-2-yl)ethyl)-4-(pyridin-2-yl)piperazine], for which the inhibition at 10 µM in data set [1] was less than 50%. In turn, `O=C1c2ccc(Cl)cc2CC1CCCCN1CCN(c2ccccn2)CC1` (centres unmarked) (as salt: HCl) [Compound 20, 5-chloro-2-(4-(4-(pyridin-2-yl)piperazin-1-yl)butyl)-2,3-dihydro-1H-inden-1-one] registered a melting point of 233 to 234 °C. `O=C1CCc2cc(OCCCN3CCN(c4ccccn4)CC3)ccc21` [Compound 11, 5-(3-(4-(pyridin-2-yl)piperazin-1-yl)propoxy)-2,3-dihydro-1H-inden-1-one] had a melting point of 103 to 104 °C. For the same molecule, the inhibition at 10 µM in [2] was less than 50%. For the same molecule, the inhibition at 10 µM in [1] was less than 50%. Take `OC1c2ccc(F)cc2CC1CCN1CCN(c2ccccn2)CC1` (centres unmarked) (as salt: hydroiodid) [Compound 14, 5-Fluoro-2-[2-(4-pyridin-2-yl-piperazin-1-yl)-ethyl]-indan-1-ol]: the melting point lay within 174 to 175 °C. On the same count and under the same terms, with `CC(=O)Nc1ccc(C(=O)CCCN2CCN(c3ccccn3)CC2)cc1` (as salt: oxalate) [Compound 3, N-(4-(4-(4-(pyridin-2-yl)piperazin-1-yl)butanoyl)phenyl) acetamide oxalate] the figure was 140 to 142 °C. For the molecule `CC(=O)Nc1ccc(C(=O)CCCN2CCN(c3ccccn3)CC2)cc1` [Compound 3, N-(4-(4-(4-(pyridin-2-yl)piperazin-1-yl)butanoyl)phenyl) acetamide oxalate], the inhibition at 10 µM in data set [1] is less than 50%. `O=C1CCc2cc(OCCCN3CCN(c4ccccn4)CC3)ccc2N1` [Compound 9, 6-(3-(4-(pyridin-2-yl)piperazin-1-yl)propoxy)-3,4-dihydroquinolin-2(1H)-one]: the melting point lay within 154 to 155 °C. `O=C1c2ccc(Cl)cc2CC1CCN1CCN(c2ccccn2)CC1` (centres unmarked) [Compound 15, 5-chloro-2-(2-(4-(pyridin-2-yl)piperazin-1-yl)ethyl)-2,3-dihydro-1H-inden-1-one] had a melting point of 132 to 135 °C. Further, in data set [2], the “binding affinity at D2R (in words)” value is reported as “lost” and the inhibition at 10 µM is less than 50%. Besides, the “binding affinity at D3R (in words)” value in data set [7] is reported as “lost”. In addition, the inhibition at 10 µM in data set [7] (read-out: D3 binding, 50% threshold inhibition (MT)) is less than 50%. The inhibition at 10 µM in data set [1] is less than 50%. In the case of `O=C1CCc2cc(OCCCN3CCCN(c4ccccn4)CC3)ccc2N1` [Compound 10, 6-(3-(4-(pyridin-2-yl)-1,4-diazepan-1-yl)propoxy)-3,4-dihydroquinolin-2(1H)-one oxalate], in [8], the inhibition at 10 µM is less than 50%.
